From patent EP4813993A1, “COMPOUND, PREPARATION METHOD THEREFOR, AND USE THEREOF” (Sichuan Kelun Pharmaceutical Research Institute Co., Ltd., priority 2023, dated 2025)

Key:
Nav1.8 channels = biological target: T1, Nav1.8 channels (Homo sapiens, UniProt Q9Y5Y9); test: Manual patch-clamp, current of stably overexpressed Nav1.8 channels (resting state voltage program); type: cell-based; conditions: for inhibition at 0.001 µM: concentration of 1 nM, read-out: Inhibition rate %
T1 construct: expressed in transfected cells
T1 sequence (Q9Y5Y9 whole entry): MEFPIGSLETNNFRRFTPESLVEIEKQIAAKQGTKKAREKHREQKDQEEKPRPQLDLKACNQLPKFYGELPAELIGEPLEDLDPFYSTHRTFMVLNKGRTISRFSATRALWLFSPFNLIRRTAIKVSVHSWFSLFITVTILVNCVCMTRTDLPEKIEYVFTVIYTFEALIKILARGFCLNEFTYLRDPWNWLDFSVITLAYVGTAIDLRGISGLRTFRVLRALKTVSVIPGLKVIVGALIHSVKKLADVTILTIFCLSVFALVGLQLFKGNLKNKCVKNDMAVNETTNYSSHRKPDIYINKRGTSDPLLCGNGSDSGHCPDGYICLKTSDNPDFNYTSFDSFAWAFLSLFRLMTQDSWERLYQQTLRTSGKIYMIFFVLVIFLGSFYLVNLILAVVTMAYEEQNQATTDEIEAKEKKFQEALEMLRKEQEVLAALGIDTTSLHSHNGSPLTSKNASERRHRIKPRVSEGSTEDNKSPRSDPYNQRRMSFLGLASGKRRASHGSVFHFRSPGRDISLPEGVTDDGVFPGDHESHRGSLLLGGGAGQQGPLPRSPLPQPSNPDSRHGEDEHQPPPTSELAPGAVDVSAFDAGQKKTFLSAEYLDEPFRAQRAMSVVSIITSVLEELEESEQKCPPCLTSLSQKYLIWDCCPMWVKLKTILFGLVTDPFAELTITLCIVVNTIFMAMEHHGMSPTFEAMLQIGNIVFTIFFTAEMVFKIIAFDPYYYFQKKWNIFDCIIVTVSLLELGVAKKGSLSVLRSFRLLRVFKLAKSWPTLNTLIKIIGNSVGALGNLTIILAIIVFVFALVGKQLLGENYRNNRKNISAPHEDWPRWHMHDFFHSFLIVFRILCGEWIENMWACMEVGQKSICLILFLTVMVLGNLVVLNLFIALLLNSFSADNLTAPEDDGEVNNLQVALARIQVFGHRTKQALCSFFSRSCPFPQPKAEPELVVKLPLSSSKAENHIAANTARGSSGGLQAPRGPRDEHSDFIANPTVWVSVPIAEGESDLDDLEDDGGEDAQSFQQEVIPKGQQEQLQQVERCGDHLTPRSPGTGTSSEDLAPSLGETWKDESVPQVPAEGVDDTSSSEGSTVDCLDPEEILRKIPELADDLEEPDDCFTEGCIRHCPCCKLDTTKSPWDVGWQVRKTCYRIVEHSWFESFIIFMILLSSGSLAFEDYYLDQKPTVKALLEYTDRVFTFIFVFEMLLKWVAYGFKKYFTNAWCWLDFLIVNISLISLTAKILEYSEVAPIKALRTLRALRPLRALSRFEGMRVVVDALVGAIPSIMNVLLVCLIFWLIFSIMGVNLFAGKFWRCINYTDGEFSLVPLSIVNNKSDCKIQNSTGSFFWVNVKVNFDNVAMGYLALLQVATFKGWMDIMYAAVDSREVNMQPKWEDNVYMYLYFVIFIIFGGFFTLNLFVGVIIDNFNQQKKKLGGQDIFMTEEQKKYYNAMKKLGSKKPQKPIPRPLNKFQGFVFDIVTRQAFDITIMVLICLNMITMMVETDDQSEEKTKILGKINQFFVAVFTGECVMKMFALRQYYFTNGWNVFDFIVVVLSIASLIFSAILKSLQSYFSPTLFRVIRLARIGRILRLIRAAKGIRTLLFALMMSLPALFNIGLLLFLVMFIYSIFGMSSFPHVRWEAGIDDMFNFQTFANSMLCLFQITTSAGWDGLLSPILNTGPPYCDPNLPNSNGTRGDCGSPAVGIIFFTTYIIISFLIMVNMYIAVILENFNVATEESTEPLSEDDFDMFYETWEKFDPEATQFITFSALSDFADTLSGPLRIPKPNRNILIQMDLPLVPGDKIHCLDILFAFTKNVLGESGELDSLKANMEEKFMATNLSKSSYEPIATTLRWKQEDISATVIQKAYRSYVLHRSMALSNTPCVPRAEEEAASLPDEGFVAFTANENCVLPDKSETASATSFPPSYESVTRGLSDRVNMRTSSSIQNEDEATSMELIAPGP
In short: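 Whole-cell manual patch clamp on cells stably overexpressing Nav1.8, held at -120 mV and stepped to 0 mV for 50 ms every 20 s (resting-state protocol). Compounds were perfused in ascending concentrations, each for 5 min or until stable; block of peak current was calculated at steady state.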

[1] = Pharmacokinetic study in ICR mice; type: in vivo; conditions: mouse
Protocol: Experimental Example 3: Pharmacokinetic study of compounds in ICR mice
(§1) Experimental animals: ICR mice, male, 6-8 weeks old.
(§2) Compound preparation: 5% (final preparation volume) of DMSO was added to dissolve the test compound, and then 10% (final preparation volume) of Cremophor EL and 85% Saline were sequentially added.
The injection group was given free access to food and water. The oral group was fasted overnight (> 12 h) with free access to water, and was fed 4 h after administration. Blood samples were collected from the jugular vein of ICR mice at the following time points: 5 min, 15 min, 0.5 h, 1 h, 2 h, 4 h, 8 h, and 24 h after injection administration; 15 min, 0.5 h, 1 h, 2 h, 4 h, 6 h, 8 h, and 24 h after oral administration. The collected blood samples were anticoagulated, placed in an ice bath, and then centrifuged for 5 min to separate plasma. The plasma was stored at -70 °C for analysis.
Sample test: The concentrations of the designated compound drugs in plasma were determined by the LC-MS/MS method; the main pharmacokinetic parameters were calculated using the Winnolin 8.3 non-compartmental model. Pharmacokinetic test results of some compounds of the present disclosure in ICR mice

[2] = Tissue distribution study (dorsal root ganglia) in ICR mice; type: in vivo; conditions: male, mouse, oral administration 20 mg/kg
Protocol: Experimental Example 4: Tissue distribution study of compounds in ICR mice
as §1, §2
Experimental design: The test compounds were administered to ICR mice as a single dose via oral administration (20 mg/kg; n = 3, 3 time points). Blood samples were collected at 0.25 h, 2 h, and 12 h after oral administration, followed by sacrifice of the animals. Dorsal root ganglia (DRG) were collected, rinsed with ice-cold normal saline to remove residual blood, blotted dry with absorbent paper, and stored at -70 °C for analysis.
Sample test: The concentrations of the compound drugs in dorsal root ganglia were determined by the LC-MS/MS method.

incision pain model [3] = test: Incision pain model in ICR mice, Von Frey test; type: in vivo; conditions: Mean + SEM, n = 10; for PWT 50% value (g) Post-surgery, Preadministration / PWT 50% value (g) Pre-surgery: 50 mg/kg group; for PWT 50% value (g) Post-surgery, Preadministration: baseline before administration; for PWT 50% value (g) Pre-surgery: baseline before surgery; for PWT 50% value (g) 0.5 h / PWT 50% value (g) 2 h / PWT 50% value (g) 4 h: 50 mg/kg single dose; for PWT 50% value (g) 0.5 h: 0.5 h after administration; for PWT 50% value (g) 2 h: 2 h after administration; for PWT 50% value (g) 4 h: 4 h after administration
Protocol: Experimental Example 6: Pharmacodynamic effect study of compounds in incision pain model in ICR mice Experimental animals: ICR mice, male, 28-35 g.
as §2
A plantar incision pain model was established in mice via surgery before the administration and test. Mice were placed in an anesthesia induction chamber and given 3%-4% isoflurane for anesthesia induction. After the anesthesia induction, a breathing mask was applied, and the isoflurane concentration was adjusted to 1%-2% to prevent the mice from suffering pain during the surgery. Each mouse was placed in a supine position, and the surgical site was disinfected with alcohol and iodophor. Under sterile conditions, a 0.5 cm longitudinal incision was made on the left hind paw surface, 0.2 cm away from the heel, extending toward the toes. The skin and fascia were incised; the plantar muscle was separated, slightly lifted, and longitudinally incised. The skin was then sutured with 5-0 sutures and disinfected.
2. Administration and test
The Von Frey test was performed once before the surgery. On the second day after animal modeling, the test was repeated, and animals meeting the baseline requirements were selected for enrollment. The animals were randomly grouped based on the 50% PWT values, with 10 animals per group. Administration was performed under a double-blind test protocol. The 50% PWT of the animals was measured separately before administration (baseline) and at 0.5 h, 2 h, and 4 h after administration, and a single dose was administered. The model control group was given normal saline, while the compound groups were given the compounds according to the administration doses in the table below.

incision pain model [4] = test: Incision pain model in ICR mice, Von Frey test; type: in vivo; conditions: 50 mg/kg single dose, Mean + SEM, n = 10
[5] = test system: acetic acid writhing model; test: Mouse acetic acid writhing model; type: in vivo, ICR mice
Protocol: Experimental Example 11: Pharmacodynamic effect study of compounds in mouse acetic acid writhing model
Experimental animals: ICR mice, male, 20-24 g.
Compound preparation: 5% (final preparation volume) of DMSO was added to dissolve the test compound, and then 10% (final preparation volume) of Cremophor EL and 85% Saline were sequentially added; an appropriate amount of Etoricoxib was weighed, 5% (final preparation volume) of DMSO was added to dissolve the test compound, and then 5% (final preparation volume) of HS-15 and 90% Saline were sequentially added.
• 1. The mice were randomly grouped based on the body weight for model establishment, with 10 animals per group. A 0.8% (v/v) acetic acid solution was intraperitoneally injected at an injection volume of 10 mL/kg. • 2. Administration and test
Administration was performed 60 min before modeling. After the acetic acid solution was injected, the number of writhing responses in mice was observed. […] The number of writhing responses was observed and recorded during two intervals: 0-15 min and 15-30 min, with a total observation duration of 30 min. Inhibition rate = (number of writhing responses in control group - number of writhing responses in administration group)/number of writhing responses in control group × 100%. The model control group was given normal saline, the positive control group 1 was given etoricoxib at 20 mg/kg, the positive control group 2 was given VX-548 at 50 mg/kg, and the remaining groups were given the compounds of the present disclosure according to the administration doses in the table below.

[6] = male, plasma, Oral administration, 10 mg/kg
[7] = male, plasma, iv, Injection (i.v.), 2 mg/kg

SMILES | inhibition at 0.001 µM (Nav1.8 channels) [%] | AUC(0-inf) [1, 6] [ng·h/mL] | AUC(0-inf) [1, 7] [ng·h/mL] | concentration at 0.25 h [2] [ng/g] | concentration at 2 h [2] [ng/g] | concentration at 12 h [2] [ng/g] | PWT 50% value (g) Post-surgery, Preadministration (incision pain model [3]) [g] | PWT 50% value (g) Pre-surgery (incision pain model [3]) [g] | PWT 50% value (g) 0.5 h (incision pain model [3]) [g] | PWT 50% value (g) 2 h (incision pain model [3]) [g] | PWT 50% value (g) 4 h (incision pain model [3]) [g] | PWT 50% value (g) AUC0-8h (incision pain model [4]) [g·h] | AUC(0-inf) ([1]; in vivo, Oral administration, 10 mg/kg) [ng·h/mL] | AUC(0-inf) ([1]; in vivo, iv, Injection (i.v.), 2 mg/kg) [ng·h/mL] | IC50 (Nav1.8 channels) [pM] | Number of writhing responses ([5]; ICR mice, Dose 50 mg/kg, 60 min before 0.8% acetic acid i.p., 30 min observation, Mean + SD, n = 10) | inhibition of the writhing effect compared with VX-548 ([5]; mouse acetic acid writhing model)
COc1c([C@@H]2C[C@](C)(C(F)(F)F)S[C@H]2C(=O)Nc2ccc(F)c(S(N)(=O)=O)c2)ccc(F)c1F [Compound 233-A, (2R,3S,5R)-3-(3,4-difluoro-2-methoxyphenyl)-N-(4-fluoro-3-sulfamoylphenyl)-5-methyl-5-(trifluoromethyl)tetrahydrothiophene-2-carboxamide] | 94.1 | 34100 | 9490 | 400 | 2850 | 489 | 0.22 ± 0.02 | 1.54 ± 0.4 | 0.42 ± 0.34 | 0.62 ± 0.32 | 0.41 ± 0.21 | 3.21 ± 1.35 | – | – | – | – | –
COc1c([C@@H]2C[C@](C)(C(F)(F)F)S[C@H]2C(=O)Nc2ccn3nncc3c2)ccc(F)c1F [Compound 246-A, (2R,3S,5R)-3-(3,4-difluoro-2-methoxyphenyl)-5-methyl-N-((1,2,3)triazolo(1,5-a)pyridin-5-yl)-5-(trifluoromethyl)tetrahydrothiophene-2-carboxamide] | 77.8 | 2580 | 1400 | – | – | – | 0.24 ± 0.03 | 1.4 ± 0.17 | 0.32 ± 0.12 | 0.33 ± 0.16 | 0.4 ± 0.27 | 2.53 ± 0.82 | – | – | – | – | –
COc1c([C@@H]2C[C@](C)(C(F)(F)F)S[C@H]2C(=O)Nc2ccc3c(c2)S(=O)(=O)NC3)ccc(F)c1F [Compound a-37-A, (2R,3S,5R)-3-(3,4-difluoro-2-methoxyphenyl)-N-(1,1-dioxide-2,3-dihydrobenzo[d]isothiazol-6-yl)-5-methyl-5-(trifluoromethyl)tetrahydrothiophene-2-carboxamide] | – | – | – | – | – | – | 0.24 ± 0.03 | 1.43 ± 0.33 | 0.33 ± 0.12 | 0.55 ± 0.18 | 0.32 ± 0.1 | 2.71 ± 0.39 | 8130 | 2030 | – | – | –
COc1c([C@@H]2C[C@](C)(C(F)(F)F)S[C@H]2C(=O)Nc2ccc(NS(N)(=O)=O)c(F)c2)ccc(F)c1F [a-19-A, (2R,3S,5R)-3-(3,4-difluoro-2-methoxyphenyl)-N-[3-fluoro-4-(sulfamoylamino)phenyl]-5-methyl-5-(trifluoromethyl)thiolane-2-carboxamide] | – | – | – | – | – | – | 0.29 ± 0.13 | 1.33 ± 0.46 | 0.47 ± 0.22 | 0.51 ± 0.29 | 0.44 ± 0.18 | 3.04 ± 0.83 | – | – | 340 | – | –
COc1c([C@@H]2C[C@](C)(C(F)(F)F)S[C@H]2C(=O)Nc2ccnc(N=[N+]=[N-])c2)ccc(F)c1F [a-20-A, (2R,3S,5R)-N-(2-azidopyridin-4-yl)-3-(3,4-difluoro-2-methoxyphenyl)-5-methyl-5-(trifluoromethyl)tetrahydrothiophene-2-carboxamide] | – | 15400 | 1990 | 1040 | 5900 | 1910 | 0.29 ± 0.09 | 1.14 ± 0.21 | 0.39 ± 0.14 | 0.49 ± 0.18 | 0.57 ± 0.22 | 3.48 ± 0.82 | – | – | 1 | 17 ± 11 | better than VX-548
COc1c([C@@H]2C[C@](C)(C(F)(F)F)S[C@H]2C(=O)Nc2ccnc(NC#N)c2)ccc(F)c1F [a-34-A, (2R,3S,5R)-N-(2-cyanoaminopyridin-4-yl)-3-(3,4-difluoro-2-methoxyphenyl)-5-methyl-5-(trifluoromethyl)tetrahydrothiophene-2-carboxamide] | – | – | – | – | – | – | 0.24 ± 0.03 | 1.41 ± 0.33 | 0.32 ± 0.15 | 0.51 ± 0.15 | 0.35 ± 0.16 | 2.81 ± 0.57 | – | – | 40 | – | –
CO/N=C(\N)c1cc(NC(=O)[C@@H]2S[C@@](C)(C(F)(F)F)C[C@H]2c2ccc(F)c(F)c2OC)ccn1 [a-57-A] | – | – | – | – | – | – | 0.22 ± 0.02 | 1.29 ± 0.22 | 0.43 ± 0.18 | 0.38 ± 0.14 | 0.29 ± 0.11 | 4.4 ± 0.41 | – | – | 23 | – | –
COc1c([C@@H]2C[C@](C)(C(F)(F)F)S[C@H]2C(=O)Nc2cccc(S(=O)(=O)N=[N+]=[N-])c2)ccc(F)c1F [a-65-A, 3-((2R,3S,5R)-3-(3,4-difluoro-2-methoxyphenyl)-5-methyl-5-(trifluoromethyl)tetrahydrothiophene-2-carboxamido)benzenesulfonyl azide] | – | – | – | – | – | – | 0.22 ± 0.02 | 1.13 ± 0.08 | 0.38 ± 0.16 | 0.43 ± 0.17 | 0.51 ± 0.2 | 4.87 ± 0.97 | – | – | 17 | – | –
